Substitutions are numbered along the chain they refer to.
Key:
Assay type in all cases: biochemical, murine
mCOX-2 Y385F = target: T1, mCOX-2 Y385F (Mus musculus, UniProt Q05769, Y371F); assay: O2 uptake with mCOX-2 site-directed mutant Y385F
T1 construct: made in house; host or cells: Sf-9 insect cells
T1 sequence (Q05769 18-604 Y371F): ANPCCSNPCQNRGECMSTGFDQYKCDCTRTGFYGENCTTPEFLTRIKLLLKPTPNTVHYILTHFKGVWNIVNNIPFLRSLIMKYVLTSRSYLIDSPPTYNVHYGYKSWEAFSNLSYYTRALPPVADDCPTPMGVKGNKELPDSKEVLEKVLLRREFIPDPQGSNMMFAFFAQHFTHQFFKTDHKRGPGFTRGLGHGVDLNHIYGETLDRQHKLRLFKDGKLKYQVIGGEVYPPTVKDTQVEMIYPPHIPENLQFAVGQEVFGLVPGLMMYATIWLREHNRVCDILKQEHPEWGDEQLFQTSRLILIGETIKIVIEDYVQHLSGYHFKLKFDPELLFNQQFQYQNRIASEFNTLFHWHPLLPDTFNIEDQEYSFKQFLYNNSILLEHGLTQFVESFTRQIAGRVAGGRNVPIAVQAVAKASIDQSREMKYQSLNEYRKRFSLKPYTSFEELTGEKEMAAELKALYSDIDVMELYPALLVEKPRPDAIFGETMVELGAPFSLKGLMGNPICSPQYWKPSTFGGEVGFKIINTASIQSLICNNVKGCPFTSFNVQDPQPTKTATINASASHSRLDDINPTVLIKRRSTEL
Protocol: (§1) Enzymology: COX-1 was purified from ram seminal vesicles as previously described. Site-directed mutagenesis of COX-2 was performed as described previously. Recombinant COX-2 enzymes were expressed in Sf-9 insect cells and purified by ion-exchange chromatography and gel filtration as previously described. Apo-enzymes were reconstituted with hematin prior to activity assays.
(§2) COX activity was quantified as previously described. Initial reaction velocity data were obtained from the linear portion of the oxygen uptake curves. Oxygraph data were analyzed by nonlinear regression with Enzyme Kinetics 1.5 software (Trinity Software, Campton, N.H.).
AA binds in the COX active site with the […] near Gly-533 [20,27].

mCOX-2 R120Q = target: T2, mCOX-2 R120Q (Mus musculus, UniProt Q05769, R106Q); assay: Initial O2 uptake rate with constriction site mutant R120Q; conditions: 200 nM enzyme; AA 100 μM, NAGly 200 μM
T2 construct: made in house; host or cells: Sf-9 insect cells
T2 sequence (Q05769 18-604 R106Q): T1 sequence (Q05769 18-604 Y371F) with R89Q, F354Y
Protocol: as §1, §2
At the bottom of the substrate (and inhibitor) binding site, there is a hydrogen bonding network comprised of residues Arg-120, Tyr-355, and Glu524, that form a constriction which is present in both COX isoforms. These residues contribute to the binding of the carboxylate in both AA and NSAIDs, and the glycerol moiety of 2-AG [12,23-27].

mCOX-2 R513H/V523I = target: T3, mCOX-2 R513H/V523I (Mus musculus, UniProt Q05769, R499H/V509I); assay: Initial O2 uptake rate with side pocket double mutant R513H/V523I; conditions: 200 nM enzyme; AA 100 μM, NAGly 200 μM
T3 construct: made in house; host or cells: Sf-9 insect cells
T3 sequence (Q05769 18-604 R499H/V509I): T1 sequence (Q05769 18-604 Y371F) with F354Y, R482H, V492I
Protocol: as §1, §2
(§3) Previous studies have identified residues in the side pocket of COX-2, especially Arg-513, as critical determinants of 2-AG oxygenation by COX-2 [13]. […] (FIG. 5).

mCOX-2 V523I = target: T4, mCOX-2 V523I (Mus musculus, UniProt Q05769, V509I); assay: Initial O2 uptake rate with side pocket mutant V523I; conditions: 200 nM enzyme; AA 100 μM
T4 construct: made in house; host or cells: Sf-9 insect cells
T4 sequence (Q05769 18-604 V509I): T1 sequence (Q05769 18-604 Y371F) with F354Y, V492I
Protocol: as §1, §2, §3

substrate oxidation by Y385F (mCOX-2 Y385F): fails to oxidize | reduction in initial rate of oxygenation compared with wild-type (mCOX-2 R120Q): < 3 fold | effect of mutation on oxygenation rate (mCOX-2 R513H/V523I): did not greatly affect | effect of mutation on ability to metabolize AA (mCOX-2 V523I): did not greatly affect
Structure (SMILES): CCCCC/C=C\C/C=C\C/C=C\C/C=C\CCCC(=O)O [AA, arachidonic acid]

From patent US7314709B2, “Compositions and methods for detecting and quantifying COX-2 activity by lipoamino acid metabolism” (Vanderbilt University, priority 2002, dated 2008)
